11 molecules from patent US20240238425A1, “HSD17B13 Inhibitors and/or Degraders” (Pfizer Inc., priority 2022, published 2024) can be followed below.

Structures can show the parent of a compound that is named as a salt.

In this assay the test system is HiBiT-HSD17β13 fusion protein (N-terminal HiBiT-tagged HSD17β13 isoform D) in Huh7 HiBiT-HSD17β13 OE cells. The experiment in a line: Whole-cell Huh7-HSD17B13 HiBiT assay (degrader potency and maximal efficacy, luminescence readout). Type of assay: cell-based, human. To be noted: 24 hour incubation, geometric mean, * = geometric mean for all forms tested (parent and salt forms); for DC50: read-out: Huh7_HIBIT-HSD17β13_DC50 GMean DC50; for Huh7_HIBIT-HSD17β13_DC50 GMean Asymptote Maximum: max. concentration 1 μM. Put shortly: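 Luminescence from lytic HiBiT detection tracked residual HiBiT-HSD17β13 (isoform D, N-terminal tag) in a stable Huh7 overexpressing clone after 24 h compound treatment at 37° C, 11 concentrations up to 1 μM final. Percent effect used DMSO (zero) and parental Huh7 (high) wells; four-parameter fit gave 50% degradation; viability checked by CellTiter-Glo.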

What is called DC50 is the concentration at which degradation of the target reaches its halfway point. As for `Cn1c(=O)n(C2CCC(=O)NC2=O)c2ccc(CN3CCOC4(C3)CN(c3ncc(-c5ccc6cn([C@H]7CC[C@H](CNC(=O)c8cc(F)c(O)c(F)c8F)CC7)nc6c5)cn3)C4)cc21` (mixture of isomers) [Example 78, N-{[(1r,4r)-4-(6-{2-[8-({1-[(3RS)-2,6-dioxopiperidin-3-yl]-3-methyl-2-oxo-2,3-dihydro-1H-benzimidazol-5-yl}methyl)-5-oxa-2,8-diazaspiro[3.5]nonan-2-yl]pyrimidin-5-yl}-2H-indazol-2-yl)cyclohexyl]methyl}-2,3,5-trifluoro-4-hydroxybenzamide, trifluoroacetate salt], the DC50 came to 470 pM and the “Huh7_HIBIT-HSD17β13_DC50 GMean Asymptote Maximum” value was 78%.

For the molecule `Cn1c(=O)n(C2CCC(=O)NC2=O)c2ccc(CCN3CCOC4(C3)CN(c3ncc(-c5ccc6cn([C@H]7CC[C@H](CNC(=O)c8cc(F)c(O)c(F)c8F)CC7)nc6c5)cn3)C4)cc21` (mixture of isomers) [Example 79, N-{[(1r,4r)-4-(6-{2-[8-(2-{1-[(3RS)-2,6-dioxopiperidin-3-yl]-3-methyl-2-oxo-2,3-dihydro-1H-benzimidazol-5-yl}ethyl)-5-oxa-2,8-diazaspiro[3.5]nonan-2-yl]pyrimidin-5-yl}-2H-indazol-2-yl)cyclohexyl]methyl}-2,3,5-trifluoro-4-hydroxybenzamide, trifluoroacetate salt], the half-maximal degradation concentration (DC50) is 310 pM and the “Huh7_HIBIT-HSD17β13_DC50 GMean Asymptote Maximum” value came out at 78%.

For `Cn1c(=O)n(C2CCC(=O)NC2=O)c2ccc(C3CC4(CCN(c5ncc(-c6ccc7cn([C@H]8CC[C@H](CNC(=O)c9cc(F)c(O)c(F)c9F)CC8)nc7c6)cn5)CC4)C3)cc21` (mixture of isomers) [Example 80, N-{[(1r,4r)-4-{6-[2-(2-{1-[(3RS)-2,6-dioxopiperidin-3-yl]-3-methyl-2-oxo-2,3-dihydro-1H-benzimidazol-5-yl}-7-azaspiro[3.5]nonan-7-yl)pyrimidin-5-yl]-2H-indazol-2-yl}cyclohexyl]methyl}-2,3,5-trifluoro-4-hydroxybenzamide, trifluoroacetate salt], the DC50 came to 1400 pM and the “Huh7_HIBIT-HSD17β13_DC50 GMean Asymptote Maximum” value worked out at 84%.

With `Cn1c(=O)n(C2CCC(=O)NC2=O)c2ccc(CCCN3CCN(c4cccc(-c5nc(C67CCC(CNC(=O)c8cc(F)c(O)c(F)c8F)(CC6)CC7)no5)c4)CC3)cc21` (racemic) [Example 81, N-{[4-(5-{3-[4-(3-{1-[(3RS)-2,6-dioxopiperidin-3-yl]-3-methyl-2-oxo-2,3-dihydro-1H-benzimidazol-5-yl}propyl)piperazin-1-yl]phenyl}-1,2,4-oxadiazol-3-yl)bicyclo[2.2.2]octan-1-yl]methyl}-2,3,5-trifluoro-4-hydroxybenzamide], the DC50 came to 860 pM and the “Huh7_HIBIT-HSD17β13_DC50 GMean Asymptote Maximum” value was determined as 81%.

Take `Cn1c(=O)n(C2CCC(=O)NC2=O)c2ccc(CN3CCN(c4ncc(-c5ccc6cn([C@]78CC[C@](CNC(=O)c9cc(F)c(O)c(F)c9F)(CC7)CC8)nc6c5)cn4)CC3)cc21` (mixture of isomers) [Example 83, N-{[4-(6-{2-[4-({1-[(3RS)-2,6-dioxopiperidin-3-yl]-3-methyl-2-oxo-2,3-dihydro-1H-benzimidazol-5-yl}methyl)piperazin-1-yl]pyrimidin-5-yl}-2H-indazol-2-yl)bicyclo[2.2.2]octan-1-yl]methyl}-2,3,5-trifluoro-4-hydroxybenzamide]: the DC50 is 500 pM and the “Huh7_HIBIT-HSD17β13_DC50 GMean Asymptote Maximum” value stood at 81%.

`Cn1c(=O)n(C2CCC(=O)NC2=O)c2ccc(CN3CCN(c4ncc(-c5ccn6cc([C@]78CC[C@](CNC(=O)c9cc(F)c(O)c(F)c9F)(CC7)CC8)nc6c5)cn4)CC3)cc21` (mixture of isomers) [Example 84, N-{[4-(7-{2-[4-({1-[(3RS)-2,6-dioxopiperidin-3-yl]-3-methyl-2-oxo-2,3-dihydro-1H-benzimidazol-5-yl}methyl)piperazin-1-yl]pyrimidin-5-yl}imidazo[1,2-a]pyridin-2-yl)bicyclo[2.2.2]octan-1-yl]methyl}-2,3,5-trifluoro-4-hydroxybenzamide]: the DC50 worked out at 590 pM and the “Huh7_HIBIT-HSD17β13_DC50 GMean Asymptote Maximum” value is on record as 83%.

Take `Cn1c(=O)n(C2CCC(=O)NC2=O)c2ccc(CCCN3C[C@@H]4CN(c5ccc6cn([C@H]7CC[C@H](CNC(=O)c8cc(F)c(O)c(F)c8F)CC7)nc6c5)C[C@@H]4C3)cc21` (mixture of isomers) [Example 85, N-{[(1r,4r)-4-{6-[(3aR,6aS)-5-(3-{1-[(3RS)-2,6-dioxopiperidin-3-yl]-3-methyl-2-oxo-2,3-dihydro-1H-benzimidazol-5-yl}propyl)hexahydropyrrolo[3,4-c]pyrrol-2(1H)-yl]-2H-indazol-2-yl}cyclohexyl]methyl}-2,3,5-trifluoro-4-hydroxybenzamide]: the DC50 was 860 pM and the “Huh7_HIBIT-HSD17β13_DC50 GMean Asymptote Maximum” value stood at 73%.

As to `Cn1c(=O)n(C2CCC(=O)NC2=O)c2ccc(CCCN3Cc4cnc(-c5ccc6cn([C@H]7CC[C@H](CNC(=O)c8cc(F)c(O)c(F)c8F)CC7)nc6c5)nc4C3)cc21` (mixture of isomers) [Example 86, N-{[(1r,4r)-4-{6-[6-(3-{1-[(3RS)-2,6-dioxopiperidin-3-yl]-3-methyl-2-oxo-2,3-dihydro-1H-benzimidazol-5-yl}propyl)-6,7-dihydro-5H-pyrrolo[3,4-d]pyrimidin-2-yl]-2H-indazol-2-yl}cyclohexyl]methyl}-2,3,5-trifluoro-4-hydroxybenzamide], the DC50 is 270 pM and the “Huh7_HIBIT-HSD17β13_DC50 GMean Asymptote Maximum” value is 78%.

Turning to `Cn1c(=O)n(C2CCC(=O)NC2=O)c2ccc(CCCN3CCc4nc(-c5ccc6cn([C@H]7CC[C@H](CNC(=O)c8cc(F)c(O)c(F)c8F)CC7)nc6c5)ncc4C3)cc21` (mixture of isomers) [Example 87, N-{[(1r,4r)-4-{6-[6-(3-{1-[(3RS)-2,6-dioxopiperidin-3-yl]-3-methyl-2-oxo-2,3-dihydro-1H-benzimidazol-5-yl}propyl)-5,6,7,8-tetrahydropyrido[4,3-d]pyrimidin-2-yl]-2H-indazol-2-yl}cyclohexyl]methyl}-2,3,5-trifluoro-4-hydroxybenzamide], the DC50 came to 500 pM and the “Huh7_HIBIT-HSD17β13_DC50 GMean Asymptote Maximum” value came to 78%.

Take `Cn1c(=O)n(C2CCC(=O)NC2=O)c2ccc(CCCN3CCc4cc(-c5ccc6cn([C@H]7CC[C@H](CNC(=O)c8cc(F)c(O)c(F)c8F)CC7)nc6c5)ncc4C3)cc21` (mixture of isomers) [Example 88, N-{[(1r,4r)-4-{6-[7-(3-{1-[(3RS)-2,6-dioxopiperidin-3-yl]-3-methyl-2-oxo-2,3-dihydro-1H-benzimidazol-5-yl}propyl)-5,6,7,8-tetrahydro-2,7-naphthyridin-3-yl]-2H-indazol-2-yl}cyclohexyl]methyl}-2,3,5-trifluoro-4-hydroxybenzamide]: the DC50 turned out to be 1500 pM and the “Huh7_HIBIT-HSD17β13_DC50 GMean Asymptote Maximum” value stood at 81%.

For `Cn1c(=O)n(C2CCC(=O)NC2=O)c2ccc(CCCN3CCN(c4ccc(-c5ccc6cn([C@H]7CC[C@H](CNC(=O)c8cc(F)c(O)c(F)c8F)CC7)nc6c5)cn4)CC3)cc21` (mixture of isomers) [Example 92, N-{[(1r,4r)-4-(6-{6-[4-(3-{1-[(3RS)-2,6-dioxopiperidin-3-yl]-3-methyl-2-oxo-2,3-dihydro-1H-benzimidazol-5-yl}propyl)piperazin-1-yl]pyridin-3-yl}-2H-indazol-2-yl)cyclohexyl]methyl}-2,3,5-trifluoro-4-hydroxybenzamide], the DC50 was 400 pM and the “Huh7_HIBIT-HSD17β13_DC50 GMean Asymptote Maximum” value came out at 87%.
